# Patent publication US20050032246A1, “Method of immobilizing membrane-associated molecules” (priority 2002, published 2005)
# Experiments:
# IMR-32 nAChR [1] = format: biochemical, human
# Description: Lipid films consisting of EggPC, EggPE, Sphingomylin and cholesterol in mol ratios of 55:27:9:9 percent, respectively, were prepared as described earlier, and rehydrated to a final lipid concentration of 3.0 mg/mL and Fluo-3 concentration of 65 μM. The liposome stock was then mixed with a small amount of DMM bringing the solution to a final concentration of 0.2 mM. Immediately following this, IMR-32 nAChR stock was added to the detergent lipid mixture and allowed to incubate at 4° C. for 90 min. Following this 15 mg of SM2-Biobeads were added to the mixture and incubated for 1 hr. This was repeated 3 times with the final addition allowed to incubate for a period of 12 hrs. […]
# In these assays, IMR-32 nAChR containing liposomes with an intraliposomal solution of Fluo-3 were entrapped as described above in 1:1 (v/v) in DGS derived silica. […] Antagonism of the nAChR ion channel was measured by addition of 25 μL of the nAChR antagonist d-tubocurarine to the top of the nAChR-containing monolith in the 96-well plate. Ligand-gated ion-flux was monitored through time dependent changes in fluorescence intensity upon the addition of 50 μL of 3 M CaCl2 using a TECAN-Safire microwell platereading fluorescence system. Fluo-3 emission was monitored and 526 nm with an excitation wavelength of 488 nm, emission and excitation bandpasses of 5 and 7.5 nm, and a detector gain of 130 V, over a period of 45 min. […]
# IMR-32 nAChR [2] = format: binding, human; settings: IMR-32 nAChR entrapped in DGS; constant 3H-epibetadine; FIG. 10
# Description: Sodium silicate or DGS derived sol precursors were prepared by methods described previously.^64 The sol solution was mixed 1:1 (v/v) with the buffered liposome or reconstituted nAChR solution, in the bottoms of 96 well microtiter plates to a final volume of 100 μL. For entrapment of IMR-32 cells for ion flux assays, the nAChR containing stock described above was uses for entrapment without further dilution. For radioassays using IMR-32 nAChR, the stock sample as provided directly from Perkin Elmer was diluted four fold in 25 mM HEPES, 100 mM KCl, 5 mM EGTA, pH 7.4 and mixed 1:1 (v/v) in DGS derived sol. The samples were aged for 1 hr at 4° C. For Torpedo Californica nAChR, the stock sample was diluted four fold in 150 mM HEPES, 100 mM KCl, 5 mM EDTA, pH 7.4, and mixed 1:1 (v/v) with sodium silicate derived sol.
# Samples of either entrapped Torpedo californica nAChR, IMR-32 nAChR or Asolectin liposomes were formed in the bottoms of 96-well microtiter plates. […] The radioactive decay from ^3H-epibatidine was then counted for 5 min to determine the ratio of free ligand existing in solution. […] Using the information from these samples the amount of receptor bound ligand could be determined. […] Free ligand was determined as described above.
# [3] = Fluo-3 Ca(II) influx into DOPC liposomes in buffered solution after addition of ionophore; format: biochemical; settings: Ca(II) outside, fluo-3 inside, FIG. 14
# Description: DOPC stock solutions were purchased in chloroform at a concentration of 20 mg.mL^−1. DOPC stock solution was dispensed in disposable glass vials and the organic solvent was removed by evaporation under a dry nitrogen gas stream to remove the bulk of the organic solvent, followed by evaporation under vacuum for two hours. The resulting dried lipid films were then rehydrated in a buffer consisting of 25 mM EGTA, 25 mM EDTA, 10% Sucrose (w/w), 10 mM KCl, 0.529 mM Fluo-3, pH 7.6 to a final lipid concentration of 2 mg/mL. The hydrated liposomes were then extruded through 600 nm pores, with an Avanti—MINIEXTRUDER at room temperature to create a mono-disperse suspension of unilamellar liposomes 600 nm in diameter. The external Fluo-3 was removed by filtration through a column packed with Sephadex G25 to yield liposomes with dye only on the interior of the liposome.
# In this case, Ca(II) is initially present only outside the liposome, while fluo-3 is present only inside the liposome. The addition of ionomycin results in the incorporation of the ionophore into the membrane, and produces a channel through which Ca(II) can move into the interior of the liposome. […]
# gramicidin A = experiment: Safranine O ion-channel activity assay of reconstituted gramicidin A entrapped in DGS derived silicate; format: biochemical; settings: various levels of CaCl2 with 3.0 M KI; several hundred millimolar Ca2+ required; FIG. 6
# Description: The Gramicidin A stock was prepared in a solution of chloroform, trifluoroethanol and dimethylsulfoxide (19:5:1 volume ratio) to a final concentration of 4.79×10^−4M. Gramicidin A stock solutions were mixed with the lipid stock solutions (20 mg.mL^−1 DOPC in chloroform) in disposable glass vials to provide final ratios of gA:lipid of either 0.39 mol % or 0.94 mol %. The organic solvent was removed by evaporation under a dry nitrogen gas stream to remove the bulk of the organic solvent, followed by evaporation under vacuum for two hours. […]
# For ion-channel studies, reconstitution of gramicidin A samples was done using an unbuffered aqueous solution containing 50 μM safranine O at pH 7.0. […] Liposome solutions that were used for tryptophan fluorescence studies consisted of 0.94 mol % of gramicidin A in DOPC that was hydrated to final concentrations of 1.0 μM of gA in 100 mM phosphate buffer at pH 7.0. […]
# The fluorescence intensity response of safranine O was monitored using the MICROMAX microwell plate reader. Fluorescence emission was monitored as a function of time at 565 nm with an excitation wavelength of 528 nm upon addition of 125 μL of various concentrations of potassium iodide to the top of the monolithic samples in the microwell plate to create an ionic gradient across the membrane. […]
compound,measurement,setting,value
O=c1cccc2n1C[C@@H]1CNC[C@H]2C1 [cytisine],fluo-3 emission response to Ca(II) (ion flux) upon addition of agonist,IMR-32 nAChR [1],acts as an agonist
"CN1CCCC1c1cccnc1 (single isomer, unassigned; (-)) [nicotine, (−)-nicotine]",IC50 and KI values compared with solution based experiments,IMR-32 nAChR [2],in good agreement with those obtained from solution based experiments
C[C@H](CCC(=O)O)C[C@H](C)C[C@H](C)C(=O)/C=C(\O)[C@H](C)C[C@H](C)C/C=C/[C@@H](C)[C@@H](O)[C@@H](C)[C@@H](O)C[C@@H]1CC[C@@](C)([C@H]2CC[C@@](C)([C@@H](C)O)O2)O1 [ionomycin],increase of fluo-3 response on Ca(II) influx,[3],3 fold
[Ca+2].[Cl-].[Cl-] [CaCl2],potential induced fluorescence response to potassium ion flux (inhibition of ion-channel activity),gramicidin A,significant and concentration-dependent decrease
COc1cc2c3cc1Oc1cc(ccc1O)C[C@@H]1c4c(cc(OC)c(O)c4Oc4ccc(cc4)C[C@@H]3N(C)CC2)CC[N+]1(C)C [d-tubocurarine],fluo-3 emission response to Ca(II) (ion flux) upon addition of antagonist,"IMR-32 nAChR [1]; liposomes previously incubated with excess nicotine, FIG. 12",the response is reduced
same,IC50 and KI values compared with solution based experiments,IMR-32 nAChR [2],in good agreement with those obtained from solution based experiments
